Our source for the IC50 values is ChEMBL document CHEMBL3217583, “The MEP pathway and the development of inhibitors as potential anti-infective agents” (Medchemcomm, 2012).

Test [1] in a line: Inhibition of Escherichia coli IspF.
A short description of test [2]: Inhibition of Aquifex aeolicus IspH expressed in Escherichia coli BL21(DE3).
Test [3] is described as follows: Competitive inhibition of Escherichia coli IspG expressed in Escherichia coli BL21(DE3) using MEcPP as substrate preincubated for 10 mins followed by substrate addition by Michaelis-Menten equation analysis.
The target in test [4] is T1, 2-C-methyl-D-erythritol 4-phosphate cytidylyltransferase, chloroplastic (Arabidopsis thaliana, UniProt P69834).
T1 sequence (P69834 whole entry): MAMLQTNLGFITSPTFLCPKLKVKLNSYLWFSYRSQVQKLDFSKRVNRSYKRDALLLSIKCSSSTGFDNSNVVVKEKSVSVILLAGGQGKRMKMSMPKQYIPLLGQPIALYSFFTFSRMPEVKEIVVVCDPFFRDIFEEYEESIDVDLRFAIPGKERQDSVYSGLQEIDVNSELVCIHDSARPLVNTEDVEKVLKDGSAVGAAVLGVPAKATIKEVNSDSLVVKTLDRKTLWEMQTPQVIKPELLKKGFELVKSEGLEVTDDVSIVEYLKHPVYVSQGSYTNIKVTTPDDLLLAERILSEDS
Nature of the test: Inhibition of Arabidopsis thaliana IspD.

A short description of test [5]: Inhibition of Chlamydomonas DXS.
Test [6] can be described thus: Inhibition of recombinant Plasmodium falciparum IspF measured for 30 mins by photometric plate reader analysis.
Test [7] has as its target 2-C-methyl-D-erythritol 2,4-cyclodiphosphate synthase (Mycobacterium tuberculosis (strain ATCC 25618 / H37Rv), UniProt P9WKG5). Description: Inhibition of Mycobacterium tuberculosis H37Rv IspF expressed in Escherichia coli XL1-Blue measured for 30 mins by photometric plate reader analysis.
Test [8] in a line: Inhibition of IspD (unknown origin).
Test [9] in a line: Inhibition of Aquifex aeolicus IspH expressed in Escherichia coli BL21(DE3) using HMBPP as substrate preincubated for 10 mins followed by substrate addition.
Test [10] in a line: Inhibition of recombinant Pseudomonas aeruginosa DXS expressed in Escherichia coli by spectrophotometric analysis.
Test [11] is described as follows: Inhibition of Escherichia coli DXS.
A short description of test [12]: Inhibition of Escherichia coli IspC.
Test [13] in a line: Inhibition of Escherichia coli IspE.
Test [14] is described as follows: Inhibition of Escherichia coli IspE by CDP-ME-coupled photometric analysis.
Test [15] in a line: Inhibition of Escherichia coli IspF by fluorescence titration assay.

Molecules are shown by their SMILES.

Chain of 2-C-methyl-D-erythritol 2,4-cyclodiphosphate synthase (P9WKG5 whole entry): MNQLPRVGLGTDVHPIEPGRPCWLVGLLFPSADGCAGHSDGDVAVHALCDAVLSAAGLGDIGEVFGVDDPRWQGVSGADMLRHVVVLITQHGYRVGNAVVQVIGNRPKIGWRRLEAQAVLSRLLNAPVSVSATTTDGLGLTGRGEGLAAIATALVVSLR

As usually defined, the IC50 is the concentration at which inhibition is half-maximal. The compound `Nc1ccn(Cc2ccc(CNC(=O)c3ccccc3)c3ccccc23)c(=O)n1` gave an IC50 in test [1] of 450 µM. Turning to `O=P(O)(O)OP(=O)(O)OCCc1cccnc1` [PYRIDIN-3-YL-ETHYL-DIPHOSPHATE], in test [2], the IC50 worked out at 9.1 µM. In [3], `C#CCOP(=O)(O)OP(=O)(O)O` [PROP-2-YNYL DIPHOSPHATE] displayed an IC50 of 0.75 µM. Compound `Oc1c(Cc2ccccc2)c(Cl)nc2ncnn12` registered an IC50 in test [4] of 0.14 µM. The compound `CC1(C)C(=O)ON(Cc2ccccc2Cl)C1=O` [KETOCLOMAZONE] returned an IC50 in [5] of 100 µM. For `CCOC(=O)C1=C(C)N=c2s/c(=C\c3cc(Br)c(O)c(Br)c3)c(=O)n2C1c1cccs1` (stereo unspecified), the IC50 in test [6] was 9.6 µM; in [7], 6.1 µM. In the case of `O=P(O)(O)OC[C@@H](O)[C@@H](O)CO`, in [8], inhibition was half-maximal at 1360 µM (IC50).

With `C#CCCOP(=O)(O)OP(=O)(O)O` [BUT-3-YNYL DIPHOSPHATE], in [9], the IC50 came to 0.45 µM. `O=C(O)C(=O)CF`: the IC50 in test [10] worked out at 400 µM; in [11] it was 80 µM. With `O=CN(O)CCCP(=O)(O)O` [FOSMIDOMYCIN], the IC50 in test [12] was found to be 0.035 µM. In test [13], `CCS(=O)(=O)NCC#Cc1cn(C2CCCS2)c(=O)nc1N` (stereo unspecified) registered an IC50 of 6 µM. In test [12], `CC(=O)N(O)CCCP(=O)(O)O` registered an IC50 of 0.05 µM. `Nc1ccn([C@@H]2O[C@H](CNC(=O)CCc3nc4ccccc4[nH]3)[C@@H](O)[C@H]2O)c(=O)n1`: half-maximal inhibition in test [14] (IC50) was put at 1670 µM. In [15], `CN(C)c1cccc2c(S(=O)(=O)NCCOP(=O)(O)OP(=O)(O)OC[C@H]3O[C@@H](n4ccc(N)nc4=O)[C@H](O)[C@@H]3O)cccc12` yielded an IC50 of 3000 µM.
